Measured values taken from publication PMC3991330 (Structure(London, England:1993), 2014).

How the values were obtained:
TIPΔD2 [1] = biological target: T1, TIPΔD2 (Methanopyrus kandleri, UniProt Q8TZC3, DEL143-290); test: native nanoelectrospray ionization mass spectrometry; assay type: binding; conditions: tightly bound; co-purified from E. coli host
TIPΔD2 [2] = biological target: T1, TIPΔD2; test: malachite green phosphate release ATPase assay; assay type: biochemical
mkTIP49 = mkTIP49 (Methanopyrus kandleri, UniProt Q8TZC3); test: malachite green phosphate release ATPase assay; assay type: biochemical; conditions: optimum 75-80 °C
native MS = biological target: the molecule itself; test: native MS

Nc1ncnc2c1ncn2[C@@H]1O[C@H](COP(=O)(O)OP(=O)(O)O)[C@@H](O)[C@H]1O [ADP]
native nanoelectrospray ionization mass spectrometry (TIPΔD2 [1]): Both full-length mkTIP49 and TIPΔD2 contain a tightly bound ADP cofactor

Nc1ncnc2c1ncn2[C@@H]1O[C@H](COP(=O)(O)OP(=O)(O)OP(=O)(O)O)[C@@H](O)[C@H]1O [ATP]
malachite green phosphate release ATPase assay (PiColorLock ALS) (TIPΔD2 [2]): deletion of D2 had a dramatic stimulating effect on the catalytic activity of mkTIP49
malachite green phosphate release ATPase assay (PiColorLock ALS) (mkTIP49): we measured the intrinsic ATPase activity of mkTIP49 and mutants thereof

B1: isolated mkTIP49 D2 insertion domain (TIPins, residues 124–290) (domain or fragment, Methanopyrus kandleri, UniProt Q8TZC3 124-290, looked up)
chain: VEFTETREVIEGKVESLEIERAKHPLSPYMEVPSGAIIELKTQDDHRRFKVPEEIAIQLVQAGVREGDVIQIDVESGHVTKLGRAKDALEEEEEELLGVHAVELPEGPVQKKKEIKRVVTLHDLDMANVRAGRLLGFREEEITDEIRQKVDERVQKMVDEGEASLVP
stoichiometry N (native MS): 2

B2: Methanopyrus kandleri TIP49 protein (mkTIP49), wild type, full length (enzyme, UniProt Q8TZC3 1-455, looked up)
chain: MVEIKEIGEVSTEETSPGAHSHITGLGLDENLKAKPVGDGLVGQEEAREAAGIVVEMVKQGRRAGHGLLLVGPPGTGKTAIAYGIARELGEDVPFVSISGSEIYGTNLSKTEFLQQAIRRAIGVEFTETREVIEGKVESLEIERAKHPLSPYMEVPSGAIIELKTQDDHRRFKVPEEIAIQLVQAGVREGDVIQIDVESGHVTKLGRAKDALEEEEEELLGVHAVELPEGPVQKKKEIKRVVTLHDLDMANVRAGRLLGFREEEITDEIRQKVDERVQKMVDEGEASLVPGVLFIDEAHMLDIEAFAFLNRSLEEEIAPILVMATNRAMAKVRGTDEEAPHGIPGDLLDRMLIARTRPFERHEIHEIIGIRARVQDIQLTDEAHEYLTDLGEEKSIRYATRLLEPARIVAEKEGSEVVEKKHVERVEEVFTDVSDSVEYMERMRRELPVMKYLTG
stoichiometry N (native MS): 12
